We go through 15 compounds from patent US12281122B1, “PI3K inhibitors” (Cogent Biosciences, Inc., priority 2023, dated 2025).

As usually defined, the pIC50 is the IC50 on a negative log10 scale, so that one unit is a factor of ten. Read a high pIC50 as a low IC50.

pIC50: −log10 of the molar value.

The test system of test [1] is SKBR3 (PI3Kα-Wild Type) cell line. Put plainly: HTRF phospho-AKT(S473) cell assay in SKBR3 cells. The settings on record: Homo sapiens, SK-BR-3; SKBR3 (PI3Kα-Wild Type) cells, HTRF phospho-AKT(S473), 2 hours compound incubation, PDGF-BB stimulated. The test is classed as cell-based, human. The gist of the method: (§1)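 T47D (PI3Kα-H1047R; RPMI, 10% FBS, insulin) and SKBR3 (wild-type PI3Kα; McCoy's 5A, 10% FBS) cells treated 2 h at 37 °C with 12-point 1:3 dilutions, top 5 μM and 10 μM respectively, ≤0.5% DMSO. SKBR3 stimulated with 70 ng/ml PDGF-BB for the last 15 min; lysate pAKT(S473) by HTRF, IC50 from curves.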
A general note: TR-FRET usually uses a lanthanide donor and a delayed reading to cut background.

Test [2] deals with T47D (PI3Kα-H1047R) cell line. Put plainly: HTRF phospho-AKT(S473) cell assay in T47D cells. The settings on record: Homo sapiens; T47D (PI3Kα-H1047R) cells, HTRF phospho-AKT(S473), 2 hours compound incubation. Format: cell-based, human. Put shortly:
as §1

In the case of `Cc1cc([C@@H](C)Nc2ccc(Cl)nc2C(=O)NS(C)(=O)=O)c2nc(N3CC[C@H](Oc4cc[nH]n4)C3)n(C)c(=O)c2c1` [Compound 362, 3-(((R)-1-(2-((S)-3-((1H-pyrazol-3-yl)oxy)pyrrolidin-1-yl)-3,6-dimethyl-4-oxo-3,4-dihydroquinazolin-8-yl)ethyl)amino)-6-chloro-N-(methylsulfonyl) picolinamide], the negative logarithm of the IC50 (pIC50) was 5.30 to 6.00 in test [1] and greater than 6.60 in test [2].
`Cc1cc([C@@H](C)Nc2ccc(Cl)nc2C(=O)NS(C)(=O)=O)c2nc(N3CC[C@@H](Oc4cc[nH]n4)C3)n(C)c(=O)c2c1` [Compound 363, 3-(((R)-1-(2-((R)-3-((1H-pyrazol-3-yl)oxy)pyrrolidin-1-yl)-3,6-dimethyl-4-oxo-3,4-dihydroquinazolin-8-yl)ethyl)amino)-6-chloro-N-(methylsulfonyl) picolinamide]: the pIC50 in test [1] is 5.30 to 6.00; in test [2] it was greater than 6.60.
The like results for `C[C@@H](Nc1ccc(Cl)nc1C(=O)NS(C)(=O)=O)c1cc(F)cc2c(=O)n(C)c(N3CCC(c4nn(C)cc4F)CC3)nc12` [Compound 364, (R)-6-chloro-3-((1-(6-fluoro-2-(4-(4-fluoro-1-methyl-1H-pyrazol-3-yl)piperidin-1-yl)-3-methyl-4-oxo-3,4-dihydroquinazolin-8-yl)ethyl)amino)-N-(methylsulfonyl) picolinamide] were, in that order, 5.30 to 6.00 and 6.30 to 6.60.
With `Cc1ccc(C2CCN(c3nc4c([C@@H](C)Nc5ccc(Cl)nc5C(=O)NS(C)(=O)=O)cc(F)cc4c(=O)n3C)CC2)cn1` [Compound 365, (R)-6-chloro-3-((1-(6-fluoro-3-methyl-2-(4-(6-methylpyridin-3-yl)piperidin-1-yl)-4-oxo-3,4-dihydroquinazolin-8-yl)ethyl)amino)-N-(methylsulfonyl) picolinamide], the pIC50 in test [1] was 5.30 to 6.00; in test [2], greater than 6.60.
For `C[C@@H](Nc1ccc(Cl)nc1C(=O)NS(C)(=O)=O)c1cc(F)cc2c(=O)n(C)c(N3CCC(c4ccn(C)n4)CC3)nc12` [Compound 366, (R)-6-chloro-3-((1-(6-fluoro-3-methyl-2-(4-(1-methyl-1H-pyrazol-3-yl)piperidin-1-yl)-4-oxo-3,4-dihydroquinazolin-8-yl)ethyl)amino)-N-(methylsulfonyl) picolinamide], the pIC50 in test [1] is 5.30 to 6.00; in test [2], greater than 6.60.
As for `Cc1cc([C@@H](C)Nc2ccc(Cl)nc2C(=O)NS(C)(=O)=O)c2nc(N3CCC[C@@H](Oc4ccc(C)nc4)C3)n(C)c(=O)c2c1` [Compound 368, 6-chloro-3-(((R)-1-(3,6-dimethyl-2-((R)-3-((6-methylpyridin-3-yl)oxy)piperidin-1-yl)-4-oxo-3,4-dihydroquinazolin-8-yl)ethyl)amino)-N-(methylsulfonyl) picolinamide], the pIC50 in test [1] was no more than 5.30; in test [2], 6.30 to 6.60.
The like results for `Cc1cc([C@@H](C)Nc2ccc(Cl)nc2C(=O)NS(C)(=O)=O)c2nc(N3CCN(c4cnc(C)cn4)CC3)n(C)c(=O)c2c1` [Compound 369, (R)-6-chloro-3-((1-(3,6-dimethyl-2-(4-(5-methylpyrazin-2-yl)piperazin-1-yl)-4-oxo-3,4-dihydroquinazolin-8-yl)ethyl)amino)-N-(methylsulfonyl) picolinamide] were, in that order, 5.30 to 6.00 and greater than 6.60.
The matching figures for `Cc1cc([C@@H](C)Nc2ccc(Cl)nc2C(=O)NS(C)(=O)=O)c2nc(N3CCC(c4cccc(=O)n4C)CC3)n(C)c(=O)c2c1` [Compound 370, (R)-6-chloro-3-((1-(3,6-dimethyl-2-(4-(1-methyl-6-oxo-1,6-dihydropyridin-2-yl)piperidin-1-yl)-4-oxo-3,4-dihydroquinazolin-8-yl)ethyl)amino)-N-(methylsulfonyl) picolinamide]: 5.30 to 6.00 and greater than 6.60.
The matching figures for `Cc1cc([C@@H](C)Nc2ccc(Cl)nc2C(=O)NS(C)(=O)=O)c2nc(N3CCC4(CCN(c5ccn(C)n5)C4)C3)n(C)c(=O)c2c1` (stereo partly drawn) [Compound 371, 6-chloro-3-(((1R)-1-(3,6-dimethyl-2-(7-(1-methyl-1H-pyrazol-3-yl)-2,7-diazaspiro[4.4]nonan-2-yl)-4-oxo-3,4-dihydroquinazolin-8-yl)ethyl)amino)-N-(methylsulfonyl) picolinamide]: 5.30 to 6.00 and greater than 6.60.
Regarding `Cc1cc([C@@H](C)Nc2ccc(Cl)nc2C(=O)NS(C)(=O)=O)c2nc(N3CCC(c4ccn(C)n4)CC3)n(C3CC3)c(=O)c2c1` [Compound 372, (R)-6-chloro-3-((1-(3-cyclopropyl-6-methyl-2-(4-(1-methyl-1H-pyrazol-3-yl)piperidin-1-yl)-4-oxo-3,4-dihydroquinazolin-8-yl)ethyl)amino)-N-(methylsulfonyl) picolinamide], the pIC50 was 5.30 to 6.00 in test [1] and greater than 6.60 in test [2].
The matching figures for `C[C@@H](Nc1ccc(Cl)nc1C(=O)NS(C)(=O)=O)c1cc(F)cc2c(=O)n(C)c(N3C[C@@H]4[C@H](C3)[C@H]4c3ccn(C)n3)nc12` [Compound 373, 6-chloro-3-(((R)-1-(6-fluoro-3-methyl-2-((1R,5S,6R)-6-(1-methyl-1H-pyrazol-3-yl)-3-azabicyclo[3.1.0]hexan-3-yl)-4-oxo-3,4-dihydroquinazolin-8-yl)ethyl)amino)-N-(methylsulfonyl) picolinamide]: 5.30 to 6.00 and 6.30 to 6.60.
`C[C@@H](Nc1ccc(Cl)nc1C(=O)NS(C)(=O)=O)c1cc(F)cc2c(=O)n(C)c(N3C[C@@H]4[C@H](C3)[C@H]4c3ccnn3C)nc12` [Compound 374, 6-chloro-3-(((R)-1-(6-fluoro-3-methyl-2-((1R,5S,6R)-6-(1-methyl-1H-pyrazol-5-yl)-3-azabicyclo[3.1.0]hexan-3-yl)-4-oxo-3,4-dihydroquinazolin-8-yl)ethyl)amino)-N-(methylsulfonyl) picolinamide]: the pIC50 in test [1] was 5.30 to 6.00; in test [2] it was greater than 6.60.
The matching figures for `Cc1cc([C@@H](C)Nc2ccc(Cl)nc2C(=O)NS(C)(=O)=O)c2nc(N3CCC[C@@H](Oc4cnccn4)C3)n(C)c(=O)c2c1` [Compound 375, 6-chloro-3-(((R)-1-(3,6-dimethyl-4-oxo-2-((R)-3-(pyrazin-2-yloxy)piperidin-1-yl)-3,4-dihydroquinazolin-8-yl)ethyl)amino)-N-(methylsulfonyl) picolinamide]: no more than 5.30 and 6.30 to 6.60.
The like results for `Cc1cc([C@@H](C)Nc2ccc(Cl)nc2C(=O)NS(C)(=O)=O)c2nc(N3CCC[C@@H](Oc4cnc(C)cn4)C3)n(C)c(=O)c2c1` [Compound 376, 6-chloro-3-(((R)-1-(3,6-dimethyl-2-((R)-3-((5-methylpyrazin-2-yl)oxy)piperidin-1-yl)-4-oxo-3,4-dihydroquinazolin-8-yl)ethyl)amino)-N-(methylsulfonyl) picolinamide] were, in that order, no more than 5.30 and 6.30 to 6.60.
The matching figures for `Cc1cc([C@@H](C)Nc2ccc(Cl)nc2C(=O)NS(C)(=O)=O)c2nc(N3CCC[C@H](Oc4cnccn4)C3)n(C)c(=O)c2c1` [Compound 377, 6-chloro-3-(((R)-1-(3,6-dimethyl-4-oxo-2-((S)-3-(pyrazin-2-yloxy)piperidin-1-yl)-3,4-dihydroquinazolin-8-yl)ethyl)amino)-N-(methylsulfonyl) picolinamide]: no more than 5.30 and 6.30 to 6.60.
